The values that follow are results of earlier work, collected in patent publication US20020103221A1, “Use of growth hormone secretagogues for improvement of functional health status” (priority 2000, published 2002).

In data set [1] the test system is markers of bone formation and bone resorption. The settings on record: obese young males.
Data set [2] deals with serum insulin-like growth factor-I; quadriceps muscle. Conditions: canines, during remobilization.
The conditions of data set [3]: adult female rats.
For data set [4] the following is noted: GH-deficient adults.

Non-standard residues stand in square brackets, D forms with d. Residues, ends and D or L forms follow the SMILES beside them. d2Nal = N[C@H](Cc1ccc2ccccc2c1)C(=O)O; Aib = CC(C)(N)C(=O)O

`CC(C)(N)C(=O)N[C@H](COCc1ccccc1)C(=O)N1CCC2(CC1)CN(S(C)(=O)=O)c1ccccc12` [MK-0677]: the “markers of bone formation and bone resorption” value in data set [1] is “increases”. Besides, in data set [2], the “levels of serum insulin-like growth factor-I” value is “elevated”; the “size and strength of the quadriceps muscle” value is “increased”. Consider `CC(C)(N)C(=O)N[C@@H](Cc1c[nH]cn1)C(=O)N[C@H](Cc1ccc2ccccc2c1)C(=O)N[C@H](Cc1ccccc1)C(=O)N[C@@H](CCCCN)C(N)=O` [ipamorelin] (H-[Aib]H[d2Nal][dF]K-NH2), for which the bone mass entry in data set [3] was “capacity to increase bone mass”.

On to GHRP-6, for which the bone mass result in data set [3] was “capacity to increase bone mass”.

Consider “growth hormone: growth hormone replacement given to GH-deficient adults”, for which the self-perceived well-being result in data set [4] was “significant improvements”.
